Key:
[1] = test system: Staphylococcus epidermidis (ATCC 12228); test: Radial diffusion (inhibition zone) assay; assay type: cell-based; details: S. epidermidis (Gram-positive)
Protocol: (§1) Antimicrobial assays. E. coli (ATCC 25922), Pseudomonas aeruginosa (ATCC 8427), Salmonella typhimurium (ATCC 13311), Proteus vulgaris (ATCC 8427), Staphylococcus epidermidis (ATCC 12228), and MRSA (ATCC 33591) isolates were maintained on trypticase soy broth (TSB) agar plates. Individual colonies were selected and cultured overnight in TSB, subcultured once at 1:50 in fresh TSB, and then grown to stationary phase for use in all experiments. The radial diffusion assay was performed in 0.5% agarose and 0.75% tryptone brought to ebullition and cooled to 43° C., and then mixed with […] of bacterial suspension and poured into a 10 cm Petri dish. A series of small wells (diameter, 3 mm) were punched in the plate after the agarose solidified. Two microliters of test samples were applied in each well. Plates were incubated at 37° C. overnight to allow visible growth of bacteria. Antibacterial activity was indicated by the clear zone (no bacterial growth) around the well.
(§2) Antimicrobial activity of recombinant cathelin-like protein. Recombinant cathelicidins were tested for antimicrobial activity using a standard radial diffusion assay. Different concentrations of the cathelin-like protein were loaded into wells on assay plates containing Gram-positive MRSA, S. epidermidis, and strains of the Gram-negative bacterial species E. coli, S. enteritidis, P. vulgaris, and P. aeruginosa. […] Similarly, cathelin-like protein inhibited growth of S. epidermidis ([…]) but not S. enteritidis or P. vulgaris.

E. coli (ATCC 25922) = test: Radial diffusion (inhibition zone) assay; assay type: cell-based
Protocol: as §1, §2

[2] = test system: Pseudomonas aeruginosa (ATCC 8427); test: Radial diffusion (inhibition zone) assay; assay type: cell-based; details: P. aeruginosa
Protocol: as §1, §2

S. enteritidis = test: Radial diffusion (inhibition zone) assay; assay type: cell-based
Protocol: as §1, §2

MRSA (ATCC 33591) = test: Radial diffusion (inhibition zone) assay; assay type: cell-based, Staphylococcus aureus; details: MRSA (Gram-positive)
Protocol: (§3) FIGS. 3A–C show Growth inhibition of MRSA, E. coli, and P. aeruginosa by cathelin-like protein. (a) Inhibition zone ssay on tryptone/agarose plates with MRSA. Clear circles show lack of bacterial growth. Lanes 1, 3, 5, bottom row: cathelin-like protein at […], 16 μM, respectively. Lane 2, top row:[…] of His-tagged cathelin-like protein before cleavage. Lane 4, top: enterokinase enzyme alone. All assays were performed in duplicate and repeated three times. (b), (c) CFU assay: growth inhibition of (b) MRSA and (c) E. coli, cultured in 10 mM phosphate and 1% TSB (pH 7.4) and then supplemented with different concentrations of human cathelin-like protein.
as §1, with “A series of small wells (diameter, 3 mm) were punched in the plate after the agarose solidified. Two microliters of test samples were applied in each well. Plates were incubated at 37° C. overnight to allow visible growth of bacteria. Antibacterial activity was indicated by the clear zone (no bacterial growth) around the well.” left out

E. coli = test: Colony-forming assay (CFU), liquid phase; assay type: cell-based; parameters: unit of the concentration uncertain; details: 3 (unit uncertain), 10 mM phosphate, 1% TSB, pH 7.4
Protocol: as §3
(§4) The colony-forming assay (CFU) was performed. Bacterial cultures (E. coli or MRSA) were collected at the logarithmic phase of growth in TSB, washed twice with phosphate-buffered saline, pH 7.4, and diluted to 104 CFU per ml in 10 mM phosphate buffer, pH 7.4, Na2HPO4/NaH2PO4-1% TSB (g per 1). Forty-five microliters of bacterial suspension were mixed with […] of H2O (control) or with […] of different concentrations of cathelin-like proteins, and the mixture was incubated at 37° C. Every 30 min, a […] aliquot of the reaction mixture was plated directly onto a TSB agar plate and then incubated at 37° C. overnight for enumeration of CFU. Data are reported as growth index=final CFU/CFU in initial inoculum. […]

MRSA = test: Colony-forming assay (CFU), liquid phase; assay type: cell-based, Staphylococcus aureus; details: 10 mM phosphate, 1% TSB, pH 7.4
Protocol: as §3, §4

| Substance | growth inhibition [1] | growth inhibition (E. coli (ATCC 25922)) | growth inhibition [2] | growth inhibition (S. enteritidis) | growth inhibition (MRSA (ATCC 33591)) | effect on growth (CFU) (E. coli) | effect on growth (CFU) (MRSA) |
| --- | --- | --- | --- | --- | --- | --- | --- |
| CRAMP [reference compound] | inactive | highly active | highly active | highly active | inactive | – | – |
| LL-37: C-terminal 37 amino acid mature antimicrobial peptide of human hCAP18 (LLGDFFRKSKEKIGKEFKRIVQRIKDFLRNLVPRTES) [reference compound] | inactive | highly active | highly active | highly active | inactive | bactericidal | no effect |
